Test results taken from paper PMC2858410 (The Journal of comparative neurology, 2008).

Key:
[1] = target: T1, human α2A-adrenergic receptor (hα2A; αh2A) (Homo sapiens, UniProt P08913); experiment: [3H]RX821002 displacement, filtration, Sf9 membranes; format: binding; conditions: […] [3H]RX821002; […] Tris-HCl pH […] MgCl2, […] EDTA
T1 sequence (P08913 1-465): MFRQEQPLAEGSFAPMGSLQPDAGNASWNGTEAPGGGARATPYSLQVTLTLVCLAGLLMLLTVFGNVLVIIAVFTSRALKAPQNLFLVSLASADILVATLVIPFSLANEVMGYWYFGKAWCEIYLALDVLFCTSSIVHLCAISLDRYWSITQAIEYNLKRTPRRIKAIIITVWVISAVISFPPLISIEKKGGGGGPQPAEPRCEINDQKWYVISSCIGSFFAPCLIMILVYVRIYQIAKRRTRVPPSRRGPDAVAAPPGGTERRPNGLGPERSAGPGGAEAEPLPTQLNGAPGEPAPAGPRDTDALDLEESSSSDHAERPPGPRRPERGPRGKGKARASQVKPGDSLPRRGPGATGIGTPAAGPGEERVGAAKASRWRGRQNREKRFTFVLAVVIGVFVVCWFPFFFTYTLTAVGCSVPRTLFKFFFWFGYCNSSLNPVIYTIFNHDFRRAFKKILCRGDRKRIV

[2] = target: T1, human α2A-adrenergic receptor (hα2A; αh2A); experiment: radioligand binding, filtration, Sf9 membranes; conditions: labelled compound, […]; […] Tris-HCl pH […] MgCl2, […] EDTA; […] h

SMILES | [3H]RX821002 displacement, filtration, Sf9 membranes [1] | radioligand binding, filtration, Sf9 membranes [2]
CN1CCc2cccc3c2[C@H]1Cc1ccc(O)c(O)c1-3 [apomorphine] | apomorphine, SCH-23390 and clozapine display a substantial affinity for α2a-adrenergic receptors | –
CN1CCc2cc(Cl)c(O)cc2[C@@H](c2ccccc2)C1 [SCH-23390] | apomorphine, SCH-23390 and clozapine display a substantial affinity for α2a-adrenergic receptors | –
CN1CCN(C2=Nc3cc(Cl)ccc3Nc3ccccc32)CC1 [clozapine] | apomorphine, SCH-23390 and clozapine display a substantial affinity for α2a-adrenergic receptors | –
COC1(C2=NCCN2)COc2ccccc2O1 (stereo not shown) [RX821002] | – | [^3H]RX821002 binding was concentration-dependently inhibited by increasing concentrations of both norepinephrine and dopamine
